How the values were obtained:
human PINK1 [1] = assay: Immunoprecipitation kinase assay of mitochondrial PINK1-FLAG from CCCP-treated HEK293 cells with GST-parkin Ubl (1-108) substrate; format: cell-based
Description: (§1) In assays utilising E. coli expressed wild-type or kinase dead (D359A) MBP-TcPINK1, reactions were set up in a volume of 40 μl, with substrates at 1 μg and kinase at 0.5 μg in 50mMTris-HCl (pH 7.5), 0.1 mM EGTA, 10 mM MgCl2, 2 mM dithiothreitol (DTT) and 0.1 mM [γ-^32P] ATP (approximately 500 cpm/pmol). Assays were incubated at 30° C. with shaking at 1200 rpm and terminated after the indicated time by addition of SDS sample buffer. In mammalian HEK293 immunoprecipitation kinase assays, C-terminal-FLAG tagged wild-type or kinase dead (D384A) PINK1 was immunoprecipitated from 5 mg of mitochondrial enriched extracts using anti-FLAG agarose beads and activity measured in a reaction volume of 40 μl consisting of 50 mM Tris-HCl (pH 7.5), 0.1 mM EGTA, 10 mM MgCl2, 2 mM DTT, 0.1 mM [γ-^32P] ATP (2000cpm/pmol) and 5 μg of indicated substrate. Assays were incubated at 30° C. with shaking at 1200 rpm and terminated after 30 min by addition of SDS sample buffer. For all assays, reaction mixtures were resolved by SDS-PAGE. Proteins were detected by Coomassie staining and gels were imaged using an Epson scanner and dried completely using a gel dryer (Bio-Rad). Incorporation of [γ-32P] ATP into substrates was analysed by autoradiography using Amersham Hyper-Film ECL.

human PINK1 [2] = assay: Parkin Ser65 phosphorylation in Flp-In T-Rex HEK293 cells expressing PINK1-FLAG after CCCP stimulation; format: cell-based
Description: (§2) Flp-In T-Rex stable cell lines were cultured using DMEM (Dulbecco's modified Eagle's medium) supplemented with 10% FBS (Fetal Bovine Serum), 2 mM L-Glutamine, 1× Pen/Strep, 15 μg/ml of Blasticidin and 100 μg/ml of Hygromycin. Cell transfections of HA-parkin or untagged parkin were performed using the polyethyleneimine (PEI) method (Reed et al, 2006). Cultures were induced to express protein by addition of 0.1 μg/ml of Doxycycline in the medium for 24 hours. To uncouple mitochondria, cells were treated with 10 μM CCCP (Sigma) dissolved in DMSO for the indicated times. An equivalent volume of DMSO was used as a control.
Cells were lysed and fractionated by the indicated buffer and methods: Whole cell lysis using buffer: 50 mM Tris/HCl (pH 7.4), 1 mM EGTA, 1 mM EDTA, 1%(w/v) 1 mM sodium orthovanadate, 10 mM sodium β-glycerophosphate, 50 mM NaF, 5 mM sodium pyrophosphate, 0.27M sucrose, 1 mM benzamidine and 2mMPMSF and 1%(v/v) Triton X-100. Lysates were clarified by centrifugation at 13,000 rpm for 10 min at 4° C. and the supernatant was collected. […] Protein concentration was determined using the Bradford method (Thermo Scientific) with BSA as the standard. […]

human PINK1 [3] = assay: PINK1 stabilisation, band-shift and Thr257 autophosphorylation in mitochondrial/cytoplasmic extracts of CCCP-treated Flp-In T-Rex HEK293 cells; format: cell-based
Description: as §2
Cells were lysed and fractionated by the indicated buffer and methods: Whole cell lysis using buffer: 50 mM Tris/HCl (pH 7.4), 1 mM EGTA, 1 mM EDTA, 1%(w/v) 1 mM sodium orthovanadate, 10 mM sodium β-glycerophosphate, 50 mM NaF, 5 mM sodium pyrophosphate, 0.27M sucrose, 1 mM benzamidine and 2mMPMSF and 1%(v/v) Triton X-100. Lysates were clarified by centrifugation at 13,000 rpm for 10 min at 4° C. and the supernatant was collected. Mitochondrial fractionation: cells were lysed in buffer containing 250 mM sucrose, 20 mM HEPES, 3 mM EDTA, 1%(w/v) 1 mM sodium orthovanadate, 10 mM sodium β-glycerophosphate, 50 mM NaF, 5 mM sodium pyrophosphate, pH 7.5 and protease inhibitor cocktail (Roche) at 4° C. Cells were disrupted using a glass hand held homogeniser (20 passes) and the lysate was clarified by centrifuging for 10 min at 800 g at 4° C. The supernatant was further centrifuged at 16,600 g for 10 min. The resultant supernatant served as the cytosolic fraction. The pellet containing the mitochondrial fraction was resuspended in buffer containing 1% Triton X-100 and centrifuged at 13,000 rpm for 10 min. This supernatant contained solubilized mitochondrial proteins. All lysates were snap-frozen at −80° C. until use. Protein concentration was determined using the Bradford method (Thermo Scientific) with BSA as the standard.
Immunoprecipitation of recombinant PINK1-FLAG was undertaken by standard methods with anti-FLAG agarose beads (Sigma); of HA-parkin with anti-HA agarose beads (Sigma); and of untagged parkin with anti-parkin antibody (S966C) covalently conjugated to protein G-Sepharose. Immunoprecipitates, as well as cell lysates in SDS sample buffer were subjected to SDS-PAGE and transferred to PVDF membranes. For immunoblotting, membranes were incubated for 60 mins with 1% TBST containing either 5% (wt/vol) skimmed milk powder (for total antibodies) or 5% (wt/vol) BSA (for phospho-specific antibodies). The antibodies were then incubated in the same buffer overnight at 4° C. with the indicated primary antibodies. Sheep total and phospho-specific antibodies were used at a concentration of 1 μg/ml, whereas commercial antibodies were diluted 1000-fold. The incubation with phospho-specific sheep antibodies was performed with the addition of 10 μg/ml of the dephosphopeptide antigen used to raise the antibody. Blots were washed with 0.1% TBST and incubated with secondary HRP-conjugated antibodies in 5% skimmed milk for 60 mins. After repeated washes, the signal was detected with the enhanced chemiluminescence and the X-ray films were processed in a Konica Minolta Medical SRX-101 film processor.
10 mg of mitochondrial extract from Flp-In T-Rex HEK 293 cell lines stably PINK1-FLAG were subjected to immunoprecipitation with anti-FLAG-agarose and then eluted in LDS sample buffer. […]

PINK1 = molecular target: T1, PINK1 (Homo sapiens, UniProt Q9BXM7); assay: Lambda phosphatase assay of immunoprecipitated PINK1 followed by in vitro kinase assay; format: biochemical; details: 50 mM EDTA with 1000U lambda phosphatase
T1 construct: expressed in transfected cells; host or cells: Flp-In T-Rex HEK293; anti-FLAG immunoprecipitate of mitochondrial enriched extract
Description: Wild-type PINK1 was incubated with or without 1000U of Lambda phosphatase (NEB) in a reaction volume of 40 μl consisting of 50 mM Tris pH 7.5, 1 mM MnCl2 and 2 mM DTT. In addition wild-type PINK1 was treated with 1000U of lambda phosphatase in the presence of 50 mM EDTA. Assays were incubated at 30° C. for 30 min with shaking at 1200 rpm. The beads were washed three times in 50 mM Tris pH7.5, 0.1 mM EGTA and then utilized in an in vitro kinase assay with GST-parkin UBL (1-108) as the substrate. Samples were further analyzed as described above.

TcPINK1 = molecular target: T2, TcPINK1 (Tribolium castaneum, UniProt D6WMX4); assay: In vitro phosphorylation of substrates by TcPINK1; format: biochemical, insect; details: time course, GST-parkin, [γ-32P] ATP
T2 construct: full-length MBP-fusion of wild type TcPINK1 (1-570); made in house; host or cells: E. coli BL21 Codon+
T2 sequence (D6WMX4 1-570): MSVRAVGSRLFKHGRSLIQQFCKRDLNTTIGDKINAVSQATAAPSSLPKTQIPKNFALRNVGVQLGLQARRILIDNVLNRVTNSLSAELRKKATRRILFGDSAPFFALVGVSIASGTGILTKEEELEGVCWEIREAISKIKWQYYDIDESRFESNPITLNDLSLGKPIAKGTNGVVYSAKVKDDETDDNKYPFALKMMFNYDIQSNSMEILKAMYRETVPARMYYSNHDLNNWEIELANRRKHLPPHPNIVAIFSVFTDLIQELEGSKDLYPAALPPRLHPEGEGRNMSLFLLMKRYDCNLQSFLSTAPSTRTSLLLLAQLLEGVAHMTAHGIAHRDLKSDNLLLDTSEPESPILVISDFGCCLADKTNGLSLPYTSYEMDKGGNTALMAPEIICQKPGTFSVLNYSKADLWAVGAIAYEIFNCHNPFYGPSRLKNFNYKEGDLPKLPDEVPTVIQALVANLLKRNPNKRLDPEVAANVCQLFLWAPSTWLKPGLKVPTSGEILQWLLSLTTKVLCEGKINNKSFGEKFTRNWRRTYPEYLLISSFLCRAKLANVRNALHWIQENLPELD
Description: as §1

T1 sequence (Q9BXM7 whole entry): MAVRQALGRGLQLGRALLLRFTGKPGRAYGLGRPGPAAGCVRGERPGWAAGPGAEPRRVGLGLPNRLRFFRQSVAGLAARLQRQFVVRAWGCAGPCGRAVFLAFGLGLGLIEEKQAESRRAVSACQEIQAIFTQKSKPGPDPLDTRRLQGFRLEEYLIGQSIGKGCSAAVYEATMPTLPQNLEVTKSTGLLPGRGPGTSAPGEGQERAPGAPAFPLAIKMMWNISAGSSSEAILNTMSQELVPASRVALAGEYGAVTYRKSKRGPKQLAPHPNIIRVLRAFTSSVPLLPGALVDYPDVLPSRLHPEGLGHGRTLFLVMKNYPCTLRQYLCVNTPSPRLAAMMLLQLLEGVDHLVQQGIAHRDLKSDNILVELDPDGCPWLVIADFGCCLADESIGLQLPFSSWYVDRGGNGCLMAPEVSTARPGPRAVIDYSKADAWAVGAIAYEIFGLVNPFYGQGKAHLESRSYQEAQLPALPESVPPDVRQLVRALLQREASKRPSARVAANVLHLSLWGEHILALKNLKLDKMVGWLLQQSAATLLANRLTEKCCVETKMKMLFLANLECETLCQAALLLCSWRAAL

N#CC(C#N)=NNc1cccc(Cl)c1 [CCCP, carbonyl cyanide m-chlorophenyl hydrazone]
time of PINK1 activation (immunoprecipitated mitochondrial PINK1 phosphorylating parkin in vitro) (human PINK1 [1]; CCCP time course): around 40 mins | time of maximal PINK1 activation (immunoprecipitated mitochondrial PINK1 phosphorylating parkin in vitro) (human PINK1 [1]; CCCP time course): 3 h | activation of human PINK1 (ability to phosphorylate parkin Ubl domain at Ser65 in vitro) (human PINK1 [1]; PINK1 isolated from CCCP-treated vs non-treated cells): inducing the activation | time at which parkin Ser65 phosphorylation occurs (human PINK1 [2]; 10 μM CCCP time course, phospho-Ser65 antibody): 5 min | parkin phosphorylation at Ser65 (human PINK1 [2]; 10 μM CCCP, 3 hours, HEK293 cells expressing human wild-type PINK1, phospho-specific antibody): induced | levels of full-length PINK1 associated with the mitochondria (human PINK1 [3]; 3 hour CCCP treatment): marked increase | phosphorylation of PINK1 at Thr257 (human PINK1 [3]; CCCP 3 hours, wild type but not kinase-inactive PINK1, phosphospecific Thr257 antibody): markedly stimulated | time to loss of the cleaved form of PINK1 in the cytosol (human PINK1 [3]; CCCP time course, cytoplasmic extracts): ≤ 5 min | time to significant stabilisation of full-length PINK1 at the mitochondria (human PINK1 [3]; CCCP time course, mitochondrial extracts): ≤ 5 min | time to maximal stabilisation of full-length PINK1 at the mitochondria (human PINK1 [3]; CCCP time course, mitochondrial extracts, sustained for up to 3 hours): ≤ 40 min

O=C(O)CN(CCN(CC(=O)O)CC(=O)O)CC(=O)O [EDTA]
effect on lambda phosphatase-induced dephosphorylation of Thr257 and loss of ability of PINK1 to phosphorylate parkin (PINK1): prevented

B1: parkin: human parkin protein expressed in E. coli, substrate of TcPINK1 (protein, UniProt O60260 1-465, looked up)
E3 ubiquitin-protein ligase …: MIVFVRFNSSHGFPVEVDSDTSIFQLKEVVAKRQGVPADQLRVIFAGKELRNDWTVQNCDLDQQSIVHIVQRPWRKGQEMNATGGDDPRNAAGGCEREPQSLTRVDLSSSVLPGDSVGLAVILHTDSRKDSPPAGSPAGRSIYNSFYVYCKGPCQRVQPGKLRVQCSTCRQATLTLTQGPSCWDDVLIPNRMSGECQSPHCPGTSAEFFFKCGAHPTSDKETSVALHLIATNSRNITCITCTDVRSPVLVFQCNSRHVICLDCFHLYCVTRLNDRQFVHDPQLGYSLPCVAGCPNSLIKELHHFRILGEEQYNRYQQYGAEECVLQMGGVLCPRPGCGAGLLPEPDQRKVTCEGGNGLGCGFAFCRECKEAYHEGECSAVFEASGTTTQAYRVDERAAEQARWEAASKETIKKTTKPCPRCHVPVEKNGGCMHMKCPQPQCRLEWCWNCGCEWNRVCMGDHWFDV
modifications: GST tag
notes: human parkin protein expressed in E. coli, substrate of TcPINK1
maximal stoichiometry of phosphorylation by TcPINK1 (TcPINK1): −0.25 moles of 32P-phosphate per mol
